Measurements taken from patent US9796711B2, “Substituted pyrazolo[3,4-b]pyridin-6-carboxylic acids and method of use” (AbbVie S.àr.l., priority 2015, dated 2017).

Target: T1, ΔF508-CFTR (Homo sapiens, UniProt P13569, DEL508-508)
T1 construct: host or cells: CFBE41o-, doxycycline-inducible
Test: CFTR cell surface levels using HRP-tagged ΔF508-CFTR expressing CFBE cells, intrinsic corrector capacity
Type: cell-based
Settings: HRP-tagged ΔF508-CFTR CFBE41o- cells, compounds alone (intrinsic corrector capacity), 20 hours at 33° C.; for % Activation: positive control 3 μM corrector; for EC50: read-out: EC50
Text: Measuring CFTR Cell Surface Levels Using HRP-Tagged AF508-CFTR Expressing CFBE Cells
The HRP-tagged AF508-CFTR cell assay measures the expression of CFTR-ΔF508 at the plasma membrane. CFTR-ΔF508 has a folding defect leading to absence of protein at the plasma membrane. This assay is used to evaluate the capacity of compounds to increase the expression of CFTR-ΔF508 at the plasma membrane. The CFTR-ΔF508 is tagged with HRP (horse radish peroxidase enzyme) within the ECL4 (Extracellular loop 4) of CFTR (Phuan, P.-W. et al. Synergy-based small-molecule screen using a human lung epithelial cell line yields AF508-CFTR correctors that augment VX-809 maximal efficacy. Mol. Pharmacol. 86, 42-51 (2014)). When HRP-tagged AF508-CFTR is present at the plasma membrane, the HRP enzyme activity can be measured. The amount of CFTR-ΔF508 that can be rescued to the plasma membrane is correlated with the amount of functional enzyme that can be measured.
There are several ways to measure the capacity of compounds to rescue CFTR-ΔF508 to the plasma membrane; either compounds are evaluated on their own and the impact on plasma membrane levels is measured or compounds are evaluated in combination with a co-corrector, i.e. a compound that rescues CFTR-ΔF508 to the plasma membrane but rescue can be enhanced by addition of compounds due to a complementary mode of action.
Activity of Compounds for their Intrinsic Corrector Capacity:
For this purpose doxycycline-inducible AF508-CFTR-HRP expressing CFBE4lo-cells (obtained from Gergely Lukacs, McGill University) were maintained in MEM (Gibco; 31095) supplemented with 10% fetal bovine serum (Hyclone; SV30160.03) under puromycin (3 μg/mL) and G418 selection (0.2 mg/mL). For compound testing, cells were seeded at 4000 cells/well in white 384-well plates (Greiner; 781080) in 50 μL medium containing 0.5 μg/mL doxycycline and incubated for 68 hours at 37° C., 5% CO2. On day four, 10 μL test compounds diluted in PBS were added to the plates at a final DMSO concentration of 0.1%. All compound plates contained negative controls (DMSO) and positive controls (3 μM corrector, 3-[(2R,4R)-4-({[1-(2,2-difluoro-1,3-benzodioxol-5-yl)cyclopropyl]carbonyl}amino)-7-methoxy-3,4-dihydro-2H-chromen-2-yl]benzoic acid). Cell plates were incubated at 33° C., 5% CO2 for 20 hours. On day five, the cells were washed five times with phosphate-buffered saline, and HRP activity was assayed by the addition of 50 μL/well of HRP substrate (SuperSignal™ West Pico Chemiluminescent Substrate, Thermo Scientific; 34080). After incubation for 15 minutes in the dark, chemiluminescence was measured using a plate reader (EnVision®, Perkin Elmer). Raw data were normalized to percentage activity values using the equation: 100×(Sample−Negative control)/(Positive control−Negative Control).

T1 sequence (P13569 with tags, fused parts or gaps DEL508-508): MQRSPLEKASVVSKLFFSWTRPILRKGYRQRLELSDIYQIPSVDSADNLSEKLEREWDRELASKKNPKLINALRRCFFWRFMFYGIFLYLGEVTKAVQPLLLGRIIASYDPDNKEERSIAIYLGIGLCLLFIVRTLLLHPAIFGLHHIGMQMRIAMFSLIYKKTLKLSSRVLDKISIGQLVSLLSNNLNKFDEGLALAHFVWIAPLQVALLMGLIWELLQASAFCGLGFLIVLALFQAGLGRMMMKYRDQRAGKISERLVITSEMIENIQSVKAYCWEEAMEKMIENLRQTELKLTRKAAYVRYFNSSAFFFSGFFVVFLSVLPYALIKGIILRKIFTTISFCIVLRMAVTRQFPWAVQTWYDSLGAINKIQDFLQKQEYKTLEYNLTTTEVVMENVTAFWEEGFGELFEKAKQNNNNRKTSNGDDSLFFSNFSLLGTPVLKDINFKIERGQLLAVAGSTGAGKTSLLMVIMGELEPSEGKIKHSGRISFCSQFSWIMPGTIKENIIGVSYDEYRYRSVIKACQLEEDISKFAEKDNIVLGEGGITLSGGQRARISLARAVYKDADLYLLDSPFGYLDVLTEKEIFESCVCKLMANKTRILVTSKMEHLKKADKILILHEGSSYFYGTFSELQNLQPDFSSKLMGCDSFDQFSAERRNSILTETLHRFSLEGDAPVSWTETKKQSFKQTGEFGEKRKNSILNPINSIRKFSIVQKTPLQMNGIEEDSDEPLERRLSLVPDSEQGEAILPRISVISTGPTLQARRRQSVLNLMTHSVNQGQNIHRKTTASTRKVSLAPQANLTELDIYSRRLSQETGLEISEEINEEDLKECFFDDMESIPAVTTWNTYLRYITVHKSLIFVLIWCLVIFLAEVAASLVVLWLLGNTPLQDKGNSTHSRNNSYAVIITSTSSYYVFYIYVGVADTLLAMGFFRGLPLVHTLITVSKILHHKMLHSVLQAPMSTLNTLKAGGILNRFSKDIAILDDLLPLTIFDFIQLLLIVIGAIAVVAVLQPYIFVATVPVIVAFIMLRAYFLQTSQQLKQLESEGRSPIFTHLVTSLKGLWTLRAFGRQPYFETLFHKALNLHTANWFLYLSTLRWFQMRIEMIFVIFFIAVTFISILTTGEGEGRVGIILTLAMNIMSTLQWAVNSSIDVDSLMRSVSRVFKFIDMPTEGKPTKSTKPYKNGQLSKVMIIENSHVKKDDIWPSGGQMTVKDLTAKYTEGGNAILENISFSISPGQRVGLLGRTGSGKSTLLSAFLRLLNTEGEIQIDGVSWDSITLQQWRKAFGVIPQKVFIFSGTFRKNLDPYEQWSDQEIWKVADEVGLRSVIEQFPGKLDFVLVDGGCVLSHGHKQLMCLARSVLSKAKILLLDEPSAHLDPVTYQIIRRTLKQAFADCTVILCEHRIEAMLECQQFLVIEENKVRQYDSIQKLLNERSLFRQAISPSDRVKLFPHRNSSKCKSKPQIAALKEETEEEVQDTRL

Row | SMILES | % Activation | EC50
1 | Cc1nn(-c2ccccc2)c2nc(C(=O)O)cc(-c3ccc(N4CCN(C)CC4)cc3)c12 [compound 9, 3-methyl-4-[4-(4-methylpiperazin-1-yl)phenyl]-1-phenyl-1H-pyrazolo[3,4-b]pyridine-6-carboxylic acid] | 31.76% | 3340 nM
2 | Cc1nn(-c2cc(F)cc(F)c2)c2nc(C(=O)O)cc(-c3ccc(N4CCOCC4)cc3)c12 [compound 10, 1-(3,5-difluorophenyl)-3-methyl-4-[4-(morpholin-4-yl)phenyl]-1H-pyrazolo[3,4-b]pyridine-6-carboxylic acid] | 116.55% | 867 nM
3 | Cc1nn(-c2cccc(Cl)c2)c2nc(C(=O)O)cc(-c3ccc(N4CCOCC4)cc3)c12 [compound 11, 1-(3-chlorophenyl)-3-methyl-4-[4-(morpholin-4-yl)phenyl]-1H-pyrazolo[3,4-b]pyridine-6-carboxylic acid] | 134.3% | 1380 nM
4 | Cc1nn(-c2ccccc2)c2nc(C(=O)O)cc(-c3ccc(N4CCS(=O)(=O)CC4)cc3)c12 [compound 14, 4-[4-(1,1-dioxo-1λ^6,4-thiazinan-4-yl)phenyl]-3-methyl-1-phenyl-1H-pyrazolo[3,4-b]pyridine-6-carboxylic acid] | 58.56% | 3340 nM
5 | CCOC(=O)c1nn(-c2ccccc2)c2nc(C(=O)O)cc(-c3ccc(N4CCOCC4)cc3)c12 [compound 16, 3-(ethoxycarbonyl)-4-[4-(morpholin-4-yl)phenyl]-1-phenyl-1H-pyrazolo[3,4-b]pyridine-6-carboxylic acid] | 92.93% | 3340 nM
6 | Cc1nn(-c2cccc(Br)c2)c2nc(C(=O)O)cc(-c3ccc(N4CCOCC4)cc3)c12 [compound 18, 1-(3-bromophenyl)-3-methyl-4-[4-(morpholin-4-yl)phenyl]-1H-pyrazolo[3,4-b]pyridine-6-carboxylic acid] | 126.8% | 783 nM
7 | COc1cccc(-n2nc(C)c3c(-c4ccc(N5CCOCC5)cc4)cc(C(=O)O)nc32)c1 [compound 21, 1-(3-methoxyphenyl)-3-methyl-4-[4-(morpholin-4-yl)phenyl]-1H-pyrazolo[3,4-b]pyridine-6-carboxylic acid] | 103.72% | 1060 nM
8 | CC(C)c1nn(-c2ccccc2)c2nc(C(=O)O)cc(-c3ccc(N4CCCC4)cc3)c12 [compound 24, 1-phenyl-3-(propan-2-yl)-4-[4-(pyrrolidin-1-yl)phenyl]-1H-pyrazolo[3,4-b]pyridine-6-carboxylic acid] | 134.1% | 1830 nM
9 | Cc1nn(-c2ccccc2)c2nc(C(=O)O)cc(-c3ccc(N4CCCC4)cc3)c12 [compound 25, 3-methyl-1-phenyl-4-[4-(pyrrolidin-1-yl)phenyl]-1H-pyrazolo[3,4-b]pyridine-6-carboxylic acid] | 93.1% | 1500 nM
10 | Cc1nn(-c2ccccc2)c2nc(C(=O)O)cc(-c3ccc(C4=CCN(C)CC4)cc3)c12 [compound 27, 3-methyl-4-[4-(1-methyl-1,2,3,6-tetrahydropyridin-4-yl)phenyl]-1-phenyl-1H-pyrazolo[3,4-b]pyridine-6-carboxylic acid] | 41.145% | 6670 nM
11 | Cc1nn(-c2ccccc2)c2nc(C(=O)O)cc(-c3ccc(N4CCC(F)C4)cc3)c12 (stereo not drawn) [compound 28, 4-[4-(3-fluoropyrrolidin-1-yl)phenyl]-3-methyl-1-phenyl-1H-pyrazolo[3,4-b]pyridine-6-carboxylic acid] | 129.5% | 1180 nM
12 | CC(=O)N1CCN(c2ccc(-c3cc(C(=O)O)nc4c3c(C)nn4-c3ccccc3)cc2)CC1 [compound 29, 4-[4-(4-acetylpiperazin-1-yl)phenyl]-3-methyl-1-phenyl-1H-pyrazolo[3,4-b]pyridine-6-carboxylic acid] | 146.1% | 3110 nM
13 | Cc1cc(C)cc(-n2nc(C)c3c(-c4ccc(N5CCOCC5)cc4)cc(C(=O)O)nc32)c1 [compound 30, 1-(3,5-dimethylphenyl)-3-methyl-4-[4-(morpholin-4-yl)phenyl]-1H-pyrazolo[3,4-b]pyridine-6-carboxylic acid] | 119.1% | 1210 nM
14 | Cc1nn(-c2ccc(OC(F)(F)F)cc2)c2nc(C(=O)O)cc(-c3ccc(N4CCOCC4)cc3)c12 [compound 31, 3-methyl-4-[4-(morpholin-4-yl)phenyl]-1-[4-(trifluoromethoxy)phenyl]-1H-pyrazolo[3,4-b]pyridine-6-carboxylic acid] | 96.335% | 522 nM
15 | COc1cc(N2CCOCC2)ccc1-c1cc(C(=O)O)nc2c1c(C)nn2-c1ccccc1 [compound 33, 4-[2-methoxy-4-(morpholin-4-yl)phenyl]-3-methyl-1-phenyl-1H-pyrazolo[3,4-b]pyridine-6-carboxylic acid] | 90.265% | 1530 nM
16 | Cc1nn(-c2cccc(OC(F)(F)F)c2)c2nc(C(=O)O)cc(-c3ccc(N4CCOCC4)cc3)c12 [compound 35, 3-methyl-4-[4-(morpholin-4-yl)phenyl]-1-[3-(trifluoromethoxy)phenyl]-1H-pyrazolo[3,4-b]pyridine-6-carboxylic acid] | 110.15% | 737 nM
17 | Cc1nn(-c2ccc(F)c(F)c2)c2nc(C(=O)O)cc(-c3ccc(N4CCOCC4)cc3)c12 [compound 37, 1-(3,4-difluorophenyl)-3-methyl-4-[4-(morpholin-4-yl)phenyl]-1H-pyrazolo[3,4-b]pyridine-6-carboxylic acid] | 112.9% | 1110 nM
18 | Cc1nn(-c2cccc(S(C)(=O)=O)c2)c2nc(C(=O)O)cc(-c3ccc(N4CCOCC4)cc3)c12 [compound 38, 1-[3-(methanesulfonyl)phenyl]-3-methyl-4-[4-(morpholin-4-yl)phenyl]-1H-pyrazolo[3,4-b]pyridine-6-carboxylic acid] | 23.86% | > 10000 nM
19 | Cc1nn(C2CCN(C)CC2)c2nc(C(=O)O)cc(-c3ccc(N4CCOCC4)cc3)c12 [compound 39, 3-methyl-1-(1-methylpiperidin-4-yl)-4-[4-(morpholin-4-yl)phenyl]-1H-pyrazolo[3,4-b]pyridine-6-carboxylic acid] | −2.469% | > 10000 nM
20 | Cc1c(C(=O)O)nc2c(c(C)nn2-c2ccccc2)c1-c1ccc(N2CCOCC2)cc1 [compound 42, 3,5-dimethyl-4-[4-(morpholin-4-yl)phenyl]-1-phenyl-1H-pyrazolo[3,4-b]pyridine-6-carboxylic acid] | 74.83% | 3340 nM
21 | Cc1nn(-c2cc(Cl)cc(Cl)c2)c2nc(C(=O)O)cc(-c3ccc(N4CCOCC4)cc3)c12 [compound 44, 1-(3,5-dichlorophenyl)-3-methyl-4-[4-(morpholin-4-yl)phenyl]-1H-pyrazolo[3,4-b]pyridine-6-carboxylic acid] | 117.2% | 2200 nM
22 | Cc1nn(-c2cccc(S(N)(=O)=O)c2)c2nc(C(=O)O)cc(-c3ccc(N4CCOCC4)cc3)c12 [compound 45, 3-methyl-4-[4-(morpholin-4-yl)phenyl]-1-(3-sulfamoylphenyl)-1H-pyrazolo[3,4-b]pyridine-6-carboxylic acid] | 5.851% | > 10000 nM
23 | Cc1nn(-c2cnn(C)c2)c2nc(C(=O)O)cc(-c3ccc(N4CCOCC4)cc3)c12 [compound 46, 3-methyl-1-(1-methyl-1H-pyrazol-4-yl)-4-[4-(morpholin-4-yl)phenyl]-1H-pyrazolo[3,4-b]pyridine-6-carboxylic acid] | 15.23% | > 10000 nM
24 | C=C(C)c1nn(-c2ccccc2)c2nc(C(=O)O)cc(-c3ccc(N4CCOCC4)cc3)c12 [compound 48, 4-[4-(morpholin-4-yl)phenyl]-1-phenyl-3-(prop-1-en-2-yl)-1H-pyrazolo[3,4-b]pyridine-6-carboxylic acid] | 163.7% | 989 nM
